The source of these data is ChEMBL document CHEMBL3046631, “Synthesis and Structure-Activity Relationships of Dinotefuran Derivatives: Modification in the Nitroguanidine Part” (2004).

One assay relates to Nephotettix cincticeps. In words: Insecticidal activity against 1 to 3 day-old adult Nephotettix cincticeps (green rice leafhopper) infested in compound-treated rice seedlings assessed as mortality measured after 3 days. Format: functional.
A further assay has as its system Laodelphax striatellus. In words: Insecticidal activity against 1 to 3 day-old adult Laodelphax striatella (small brown planthopper) infested compound-treated rice seedlings assessed as mortality measured after 3 days. Format: functional.

Consider `CCN/C(=C\[N+](=O)[O-])NCC1CCOC1` (racemic), for which the LC70 with Nephotettix cincticeps and in the assay on Laodelphax striatellus was 10 ppm in each case.
For `CN(Cc1ccccc1)/C(=N\[N+](=O)[O-])N(Cc1ccccc1)CC1CCOC1` (racemic), the LC70 with Nephotettix cincticeps and in the assay with Laodelphax striatellus was 10 ppm in each case.
For `CCN(C(C)=O)/C(=N\[N+](=O)[O-])N(CC1CCOC1)C(C)=O` (racemic), the LC70 in the assay with Nephotettix cincticeps and with Laodelphax striatellus was 10 ppm each time.
Take `CN/C(=N\[N+](=O)[O-])N(C)CC1CCOC1` (racemic): the LC70 in the assay on Nephotettix cincticeps and in the assay with Laodelphax striatellus was 1 ppm throughout.
For the compound `N/C(=N\[N+](=O)[O-])NCC1CCOC1` (racemic), the figures for the LC70 in the assay with Nephotettix cincticeps and in the assay on Laodelphax striatellus were 100 ppm and >1000 ppm, respectively.
For `COC(=O)N/C(=N\[N+](=O)[O-])NCC1CCOC1` (racemic) the same measures were 10 ppm and >1000 ppm.
As for `CCN/C(=N\[N+](=O)[O-])NCC1CCOC1` (racemic), the LC70 with Nephotettix cincticeps stood at 10 ppm; with Laodelphax striatellus it was 100 ppm.
For `CN1CCCN(CC2CCOC2)/C1=N/[N+](=O)[O-]` (racemic) the same measures were 10 ppm and 100 ppm.
For `CN/C(=N/CC1CCOC1)N[N+](=O)[O-]` (centres undefined) [DINOTEFURAN] the same measures were 0.1 ppm and 0.1 ppm.
For `CC(=O)N(C)/C(=N\[N+](=O)[O-])N(CC1CCOC1)C(C)=O` (racemic) the same measures were 0.1 ppm and 0.1 ppm.
For `CS/C(=C\[N+](=O)[O-])N(C)CC1CCOC1` (racemic), the LC70 with Nephotettix cincticeps and in the assay on Laodelphax striatellus was >1000 ppm in each case.
On to `O=[N+]([O-])/C=C1\NCCCCN1CC1CCOC1` (racemic), for which the figures for the LC70 with Nephotettix cincticeps and in the assay with Laodelphax striatellus were 1 ppm and 10 ppm, respectively.
The matching figures for `CN(C)/C(=N\[N+](=O)[O-])N(C)CC1CCOC1` (racemic): 10 ppm and 10 ppm.
The matching figures for `COC(=O)N(CC1CCOC1)/C(=N/[N+](=O)[O-])N(C)C(C)=O` (racemic): 0.1 ppm and 1 ppm.
The matching figures for `CS/C(=C\[N+](=O)[O-])NCC1CCOC1` (racemic): >1000 ppm and >1000 ppm.
Consider `CN(C)/C(=N\[N+](=O)[O-])NCC1CCOC1` (racemic), for which the values for the LC70 in the assay on Nephotettix cincticeps and in the assay with Laodelphax striatellus were 0.1 ppm and 1 ppm, respectively.
For `COC(=O)N(C)/C(=N\[N+](=O)[O-])N(CC1CCOC1)C(=O)OC` (racemic) the same measures were 0.1 ppm and 1 ppm.
The matching figures for `O=[N+]([O-])/N=C1\NCCCCN1CC1CCOC1` (racemic): 10 ppm and 100 ppm.
For `CN/C(=C\[N+](=O)[O-])NCC1CCOC1` (racemic) the same measures were 0.1 ppm and 0.1 ppm.
As to `CN/C(=C\[N+](=O)[O-])N(C)CC1CCOC1` (racemic), the LC70 in the assay with Nephotettix cincticeps and in the assay with Laodelphax striatellus was 1 ppm throughout.
As for `CN(C(=O)c1ccccc1)/C(=N\[N+](=O)[O-])N(CC1CCOC1)C(=O)c1ccccc1` (racemic), the values for the LC70 with Nephotettix cincticeps and with Laodelphax striatellus were 0.1 ppm and 1 ppm, respectively.
The matching figures for `CCCN(CC1CCOC1)/C(=C/[N+](=O)[O-])NC` (racemic): 10 ppm and 10 ppm.
The matching figures for `O=[N+]([O-])/C=C1\NCCN1CC1CCOC1` (racemic): 0.1 ppm and 10 ppm.
For `O=[N+]([O-])/N=C1\NCCN1CC1CCOC1` (racemic) the same measures were 1 ppm and 10 ppm.
On to `O=[N+]([O-])/C=C1\NCCCN1CC1CCOC1` (racemic), for which the LC70 in the assay on Nephotettix cincticeps turned out to be 0.1 ppm; in the assay on Laodelphax striatellus it was 1 ppm.
For `CCN(CC1CCOC1)/C(=N/[N+](=O)[O-])NC` (racemic) the same measures were 10 ppm and 10 ppm.
As for `O=[N+]([O-])/N=C1\NCCCN1CC1CCOC1` (racemic), the LC70 was found to be 0.1 ppm in the assay on Nephotettix cincticeps and 1 ppm in the assay with Laodelphax striatellus.
For `COC(=O)N(CC1CCOC1)/C(=N/[N+](=O)[O-])N(C)Cc1ccccc1` (racemic) the same measures were 0.1 ppm and 1 ppm.
For `CN(C)/C(=C\[N+](=O)[O-])N(C)CC1CCOC1` (racemic) the same measures were 10 ppm and 1 ppm.
For `CS/C(=N\[N+](=O)[O-])NCC1CCOC1` (centres undefined) the same measures were 10 ppm and 10 ppm.
As for `CCN(CC1CCOC1)/C(=C/[N+](=O)[O-])NC` (racemic), the LC70 amounted to 10 ppm in the assay with Nephotettix cincticeps and 1 ppm in the assay with Laodelphax striatellus.
The matching figures for `CN(C)/C(=C\[N+](=O)[O-])NCC1CCOC1` (racemic): 1 ppm and 0.1 ppm.
For `CC(=O)N/C(=N\[N+](=O)[O-])NCC1CCOC1` (racemic) the same measures were >1000 ppm and >1000 ppm.
The matching figures for `O=C(c1ccccc1)N1CCCN(CC2CCOC2)/C1=N\[N+](=O)[O-]` (racemic): 0.1 ppm and 10 ppm.
Consider `CCN(C)/C(=N\[N+](=O)[O-])NCC1CCOC1` (racemic), for which the LC70 in the assay on Nephotettix cincticeps and in the assay with Laodelphax striatellus was 10 ppm each time.
For the compound `CN1CCCN(CC2CCOC2)/C1=C/[N+](=O)[O-]` (racemic), the LC70 in the assay with Nephotettix cincticeps and in the assay on Laodelphax striatellus was 10 ppm each time.
As for `O=C(N/C(=N\[N+](=O)[O-])NCC1CCOC1)c1ccccc1` (racemic), the LC70 with Nephotettix cincticeps and in the assay on Laodelphax striatellus was >1000 ppm throughout.
On to `O=[N+]([O-])/N=C(\NCc1ccccc1)NCC1CCOC1` (racemic), for which the LC70 in the assay on Nephotettix cincticeps and in the assay with Laodelphax striatellus was >1000 ppm throughout.
With `CC(=O)N1CCCN(CC2CCOC2)/C1=N\[N+](=O)[O-]` (racemic), the LC70 in the assay on Nephotettix cincticeps amounted to 0.1 ppm; in the assay on Laodelphax striatellus, 10 ppm.
For `C#CCN/C(=C\[N+](=O)[O-])NCC1CCOC1` (racemic) the same measures were >1000 ppm and >1000 ppm.
For `CS/C(=N\[N+](=O)[O-])N(C)CC1CCOC1` (racemic) the same measures were >1000 ppm and >1000 ppm.
For `CCCN/C(=C\[N+](=O)[O-])NCC1CCOC1` (racemic) the same measures were 100 ppm and 100 ppm.
